Molecular target: T1, CYP17A1 (Homo sapiens, UniProt P05093)
T1 sequence (P05093 1-508): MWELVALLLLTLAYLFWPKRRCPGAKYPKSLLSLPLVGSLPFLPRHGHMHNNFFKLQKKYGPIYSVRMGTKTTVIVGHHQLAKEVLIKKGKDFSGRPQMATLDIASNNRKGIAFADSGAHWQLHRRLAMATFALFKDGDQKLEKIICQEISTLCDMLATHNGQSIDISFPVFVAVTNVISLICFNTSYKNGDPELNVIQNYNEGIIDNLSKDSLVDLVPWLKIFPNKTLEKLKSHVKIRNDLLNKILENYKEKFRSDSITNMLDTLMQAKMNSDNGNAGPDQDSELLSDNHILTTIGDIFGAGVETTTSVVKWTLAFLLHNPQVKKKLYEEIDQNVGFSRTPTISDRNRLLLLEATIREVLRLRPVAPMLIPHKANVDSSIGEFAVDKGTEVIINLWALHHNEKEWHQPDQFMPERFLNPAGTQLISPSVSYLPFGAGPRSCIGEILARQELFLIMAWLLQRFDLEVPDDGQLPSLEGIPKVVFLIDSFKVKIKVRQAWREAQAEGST
Experiment: […]α-hydroxylase activity, conversion of […]-progesterone to […]OH-progesterone, TLC; enzyme source not given
Type: cell-based

IC50 [µM] | Compound
1.2 | c1ccc2c(c1)ncn2-c1ccc(NC2CCCCC2)cc1 [compound 2]
2.6 | Cc1cc(Nc2cccnc2)ccc1-n1ccc2ccccc21 [compound 20]

Reference: PMC8961587, “Synthesis and Structure–Activity Relationships of Novel Non-Steroidal CYP17A1 Inhibitors as Potential Prostate Cancer Agents” (Biomolecules, 2022)
